Experimental findings from patent US20090012038A1, “Methods for microbial biofilm destruction and interference with microbial cellular physiology” (priority 2004, published 2009) are described below.

Assay [1] relates to S. oneidensis strain AS129 biofilm cells (IPTG inducible gfp). The assay can be described thus: Transcription test in biofilm cells: IPTG-inducible gfp, GFP fluorescence by CLSM. The class given is cell-based, Shewanella oneidensis. The following applies: 10 mM IPTG in flow-through medium; after 1 hour. The method, then: In order to assure that rifampicin indeed inhibited transcription in biofilm cells under those conditions, we designed an experiment to test transcription in biofilm cells. Tester cells were S. oneidensis cells tagged with an IPTG inducible gfp under control of Pt, which is repressed by LacIQ. […] Upon addition of 10 mM ITPG to the flow-through-medium, the induction of GFP in biofilm cells was readily observed by CLSM throughout the entire biofilm and quantified. This assay is very sensitive, and after 1 hour, about 20% of the maximal inducible GFP fluorescence was observed.

In assay [2] the test system is S. oneidensis biofilms. The assay can be described thus: Stop-of-flow-induced detachment of biofilms in hydrodynamic flow chamber (CLSM, COMSTAT). The class given is cell-based, Shewanella oneidensis MR-1. The method, then: Transcription is not required for the oxygen starvation-induced detachment. To directly test whether transcription is required for detachment upon rapid decrease in molecular oxygen concentration, we grew biofilms of S. oneidensis in LM medium for 12 h, and subsequently switched the medium to a LM medium amended with 10 μg/ml rifampicin for 10 or 40 minutes, respectively. After that time period, the medium flow was stopped to induce detachment.
External addition of c-di-GMP reversibly prevents biofilm detachment. […] We, therefore, predicted that amending the flow through medium of a biofilm in a hydrodynamic system with c-di-GMP should prevent the induction of detachment after applying a stop-of-flow. To test this hypothesis, biofilms of wild type S. oneidensis were grown in LM medium. […] After 30 min, the flow was stopped to induce detachment and the non-detached biomass was quantified. […]
Microscopic visualization of and image acquisition from biofilms took place at the Stanford Biofilm Research Center using an upright Zeiss LSM510 Confocal Laser Scanning Microscope (Carl Zeiss, Jena, Germany) equipped with the following objectives: 10×/0.3 Plan-Neofluar, 20×/0.5W Achroplan, and 40×/1.2W C-Apochromat. […] Biofilm parameters, such as biomass, and average biofilm thickness were quantified with the program COMSTAT (Heydorn et al., 2000).

`CC(C)S[C@@H]1O[C@H](CO)[C@H](O)[C@H](O)[C@H]1O` [IPTG, isopropyl-D-D-thiogalactopyranosid]: in assay [1], the “GFP fluorescence, share of the maximal inducible GFP fluorescence” value is listed as “about 20%”. Take `Nc1nc2c(ncn2[C@@H]2O[C@@H]3COP(=O)(O)O[C@H]4[C@@H](O)[C@H](n5cnc6c(=O)[nH]c(N)nc65)O[C@@H]4COP(=O)(O)O[C@H]3[C@H]2O)c(=O)[nH]1` [c-di-GMP, cyclic-bis(3′,5′)guanylic acid]: the “detachment after stop-of-flow following removal of c-di-GMP” value in assay [2] (flow resumed with LM devoid of c-di-GMP, 2 h incubation, then flow stopped) is listed as “the biofilm still detached”. Moreover, the detachment after stop-of-flow entry in assay [2] (wild type biofilm 12 h in LM, medium amended with 5 mM c-di-GMP, flow stopped after 30 min) is recorded as “no detachment was observed”.
